Source: patent publication US11712436B2, “Theranostic test for antifungal treatment of inflammatory diseases” (Cornell University, priority 2017, dated 2023)

Experiments:
intestinal fungi = assay: DSS colitis in ΔCX3CR1 mice with fungal targeting by fluconazole; format: in vivo; settings: 3% DSS in drinking water, fluconazole 0.5 mg/ml in drinking water starting 4 days prior the first DSS dose, FIG. 3E-G
Procedure: Cx3cr1^GFP/GFP, C57BL/6J, Cd11c-cre^+/+, Irf4^fl/fl, Cx3cr1^tm3(DTR)Litt/J (Cx3cr1^DTR), Syk^fl/fl, Cx3cr1^tm2.1(cre/ERT2)Jung/J (Cx3cr1-cre/ERT2^+/+), Batf3^−/−, Thy1.1, and OVA-specific CD4^+ (OT-II) T-cell receptor-transgenic (H-2^b) mice were purchased from the Jackson Laboratories (Bar Harbor, Me.). […]. For depletion, mice generated through such breeding (Cd11c-cre^+/− Cx3cr1^DTR mice) and the respective littermate controls (Cd11c-cre^−/− Cx3cr1^DTR) were injected for three consecutive days with 100 ng of DT i.p followed by maintenance injection every other day for the length of the experiments. Depleted mice were designated throughout the study as ΔCX3CR1 mice. Irf4^fl/fl mice were bred to hemizygous Cd11c-cre^+/− mice to allow for genetic ablation of CD11c^+ CD11b^+ CD103^+ dendritic cells (Cd11c-cre^+/− Irf4^fl/fl mice, designated throughout the study as ΔIrf4 mice) and the generation of littermate controls (Cd11c-cre^−/− Irf4^fl/fl mice). Syk^fl/fl mice were bred to Cx3cr1-cre/ERT2^+/+ to allow for the selective depletion of Syk in CX3CR1 expressing cells upon administration of tamoxifen. […]
Cx3cr1^DTR or littermate control mice were injected with DT for three consecutive days, prior to the induction of colitis with 3% (w/v) Dextran sulfate sodium (DSS, MP Biomedicals, LLC, Aurora, Ohio) in the drinking water. […] Body weight and the presence of occult blood were assessed daily. […]

[1] = tested on: most Candida species and other dimorphic fungi; settings: when used during the onset of intestinal disease; cited from earlier work

SMILES: OC(Cn1cncn1)(Cn1cncn1)c1ccc(F)cc1F [fluconazole]
- intestinal disease (DSS colitis: body weight change, neutrophil infiltration in colonic LP, H&E histology) (intestinal fungi): significantly ameliorated intestinal disease
- colitis in mice with defects in antifungal immunity [1]: ameliorates colitis
